Data on 14 molecules can be found in ChEMBL document CHEMBL2074235, “Transporter-mediated Drug Interactions” (Drug Metabol Pharmacokin, 2002).

The assay deals with T1, Solute carrier family 15 member 1 (Homo sapiens) (UniProt P46059).
T1 sequence (whole entry): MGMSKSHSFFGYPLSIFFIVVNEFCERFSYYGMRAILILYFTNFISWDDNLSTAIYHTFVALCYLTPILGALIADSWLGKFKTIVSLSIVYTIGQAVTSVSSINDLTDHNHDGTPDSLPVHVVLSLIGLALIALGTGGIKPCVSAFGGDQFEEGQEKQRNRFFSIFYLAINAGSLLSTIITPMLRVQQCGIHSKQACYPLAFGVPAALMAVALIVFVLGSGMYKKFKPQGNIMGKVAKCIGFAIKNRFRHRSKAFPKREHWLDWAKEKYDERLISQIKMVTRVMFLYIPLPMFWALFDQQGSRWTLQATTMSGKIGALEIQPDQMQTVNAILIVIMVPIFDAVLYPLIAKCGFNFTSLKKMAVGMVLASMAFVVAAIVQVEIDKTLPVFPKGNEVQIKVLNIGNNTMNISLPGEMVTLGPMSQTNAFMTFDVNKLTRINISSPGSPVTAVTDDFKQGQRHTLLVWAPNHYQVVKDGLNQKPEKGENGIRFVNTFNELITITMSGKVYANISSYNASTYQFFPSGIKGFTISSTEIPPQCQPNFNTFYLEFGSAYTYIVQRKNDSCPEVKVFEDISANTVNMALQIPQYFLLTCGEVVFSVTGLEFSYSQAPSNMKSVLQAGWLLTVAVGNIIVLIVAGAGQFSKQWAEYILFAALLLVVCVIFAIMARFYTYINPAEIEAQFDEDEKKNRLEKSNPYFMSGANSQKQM
The assay can be described thus: TP_TRANSPORTER: uptake in Xenopus laevis oocytes. As to conditions: Oocyte. The format is functional, cell-based.
For the molecule `C[C@H](N[C@@H](CCc1ccccc1)C(=O)O)C(=O)N1CCC[C@H]1C(=O)O`, the Activity entry was “substrate [+]”.

As for `C=CC1=C(C(=O)O)N2C(=O)[C@@H](NC(=O)/C(=N\O)c3csc(N)n3)[C@H]2SC1`, the Activity entry was “substrate [+]”.

With `Nc1nc(/C(=C/CC(=O)O)C(=O)N[C@@H]2C(=O)N3C(C(=O)O)=CCS[C@H]23)cs1`, the Activity result is “substrate [+]”.

`NCCCC[C@H](N[C@@H](CCc1ccccc1)C(=O)O)C(=O)N1CCC[C@H]1C(=O)O`: the Activity result was “is not a substrate [-]”.

As to `O=C(O)CO/N=C(\C(=O)N[C@@H]1C(=O)N2C(C(=O)O)=CCS[C@H]12)c1cscn1`, the Activity entry was “substrate [+]”.

Take `C=CC1=C(C(=O)O)N2C(=O)[C@@H](NC(=O)/C(=N\OCC(=O)O)c3csc(N)n3)[C@H]2SC1`: the Activity entry was “substrate [+]”.

For the molecule `CC1=C(C(=O)O)N2C(=O)[C@@H](NC(=O)[C@H](N)c3ccc(O)cc3)[C@H]2SC1`, the Activity result is “substrate [+]”.

Take `CCOC(=O)[C@H](CCc1ccccc1)N[C@@H](C)C(=O)N1CCC[C@H]1C(=O)O`: the Activity entry is “substrate [+]”.

For `NCCC(=O)N[C@@H](Cc1c[nH]cn1)C(=O)O`, the Activity result is “substrate [+]”.

In the case of `CO/N=C(\C(=O)N[C@@H]1C(=O)N2C(C(=O)O)=CCS[C@H]12)c1csc(N)n1`, the Activity result was “is not a substrate [-]”.

In the case of `CCOC(=O)[C@H](CCc1ccccc1)N[C@H]1CS[C@H](c2cccs2)CN(CC(=O)O)C1=O`, the Activity entry is “substrate [+]”.

For `C[C@@H](O)[C@H]1C(=O)N2C(C(=O)O)=C([C@H]3CCCO3)S[C@H]12`, the Activity entry was “is not a substrate [-]”.

In the case of `CC1(C)S[C@@H]2[C@H](NC(=O)Cc3ccccc3)C(=O)N2[C@H]1C(=O)O`, the Activity result is “substrate [+]”.

In the case of `O=C(O)CN1C[C@@H](c2cccs2)SC[C@H](N[C@@H](CCc2ccccc2)C(=O)O)C1=O`, the Activity entry is “substrate [+]”.
